The numbers were not newly measured in patent publication US9555026B2, “Solid dispersion comprising amorphous cilostazol” (OTSUKA PHARMACEUTICAL CO., LTD., priority 2013, dated 2017), which cites them from elsewhere.

For the series the following is noted: after meal versus fasting.

In the case of `O=C1CCc2cc(OCCCCc3nnnn3C3CCCCC3)ccc2N1` [cilostazol, 6-[4-(1-cyclohexyl-1H-tetrazol-5-yl)butoxy]-3,4-dihydrocarbostyril], the “AUC administered after meal, higher than that of fasting” value was 1.4 times and the “Cmax administered after meal, higher than that of fasting” value is listed as 2.3 times.
